Literature values in US20150202321A1, “COMPOSITIONS COMPRISING CHITOSAN-DRUG CONJUGATES AND METHODS OF MAKING AND USING THE SAME” (NEWGEN BIOPHARMA CORP., priority 2012, published 2015).
Structures can show the parent of a compound that is named as a salt. Where two headings read alike, the source gives them in different places. Values belong to the molecule of their own block, whether it stands above or below them.

What was measured:
[1] = oral
[2] = not given; remark: listed apart in the source

systemic availability for HMG-CoA reductase activity [1]: approximately 30%
Structure (SMILES): CC(C)c1c(C(=O)Nc2ccccc2)c(-c2ccccc2)c(-c2ccc(F)cc2)n1CC[C@@H](O)C[C@@H](O)CC(=O)O [AT, [R—(R/,R/)]-2-(4-fluorophenyl)-b,d-dihydroxy-5-(1-methylethyl)-3-phenyl-4-[(phenylamino)carbonyl]-1H-pyrrole-1-heptanoic acid, calcium salt (2:1) trihydrate]

bioavailability (intravenous administration): 100% | oral bioavailability (co-administered with cyclosporine): 90%±44% | oral bioavailability (on its own): 8%±6%
Structure (SMILES): CC(=O)O[C@@]12CO[C@@H]1C[C@H](O)[C@@]1(C)C(=O)[C@H](O)C3=C(C)[C@@H](OC(=O)[C@H](O)[C@@H](NC(=O)OC(C)(C)C)c4ccccc4)C[C@@](O)([C@@H](OC(=O)c4ccccc4)[C@H]21)C3(C)C [docetaxel]

AUC following evening or morning drug administration ([2]; evening versus morning): does not differ | absolute bioavailability ([2]; man): approximately 20% | elimination half life ([2]; man): ~19 h
Structure (SMILES): CC(C)c1nc(N(C)S(C)(=O)=O)nc(-c2ccc(F)cc2)c1/C=C/[C@@H](O)C[C@@H](O)CC(=O)O [rosuvastatin]
